US5583000A, “Protease-binding compounds and methods of use” (priority 1993, dated 1996)
Converted amounts (≈) assume the structure as drawn. Read-outs that look alike come from different tables or passages of the source.

Experiments:
[1] = target: HIV-1 protease (Human immunodeficiency virus type 1 group M subtype B, UniProt P03369); test: biochemical
[2] = target: T1, HIV-2 protease (Human immunodeficiency virus type 2 subtype A, UniProt P04584); test: biochemical; details: 1M NaCl
T1 construct: the coding region of the 99-amino acid protease; made in house; host or cells: Saccharomyces cerevisiae strain AB110, plasmid pHIV2PR115
T1 sequence (P04584 514-612 limits assumed): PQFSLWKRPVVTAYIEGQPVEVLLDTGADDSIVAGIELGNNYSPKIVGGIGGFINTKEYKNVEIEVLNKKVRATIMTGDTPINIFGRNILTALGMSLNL
Method: The decapeptide was synthesized by conventional solid-state methods. Reactions were carried out and fractionated by HPLC. Conversion of the decapeptide to the two pentapeptides was quantitated by integration of the peak areas and comparison to product standard curves.
Enzymatic Inhibition. […] Each data point was done in triplicate and initial enzyme rates were fit to the Michaelis-Menten equation using a nonlinear regression program ("Enzfitter" from Biosoft).

[3] = in vitro
Method: Cytotoxicity. The MTT assay was performed as follows:
The cells were seeded in 96-well plates and grown overnight to near 50% confluency. A serial dilution (1 to 500 μM) of each compound in culture media was prepared and 250 μL/well was added in duplicate. The cells were allowed to grow for various periods of time (6, 24, 48 hours) and any precipitation of compounds in the wells was noted. The assay was performed by removing 200 μL of the culture media and adding 25 μL of MTT solution (2 mg/mL in phosphate buffered saline (PBS)). This was incubated for 4 hours at 37° C. and live cells began to turn purple while the solution remained yellow. To quench the reaction and solubilize the reaction product, 160 μL of acidified isopropanol (4 mL 1N HCl for 96 mL alcohol) were added and the resulting mixture was mixed vigorously to dissolve purple crystals. Absorbance was determined at 550-570 nm on an ELISA plate reader within 0.5-2 hours. […] To obtain the LD50 values for each compound, the concentration at which the absorbance is haft of that for the untreated cells was determined.

[4] = physchem
[5] = HIV-1 Protease IC50 (μM) 1M NaCl
[6] = read-out: HIV-1 Protease IC50 (μM) 1M NaCl
[7] = HIV-1 Protease IC50 (μM) 1M NaCl, 1M NaCl

Structure (SMILES) | HIV-1 Protease Therapeutic Index (LD50 /IC50) [1] | IC50 [1, 5] [µM] | IC50 [2] [µM] | CC50 at 6 h [3] [µM] | solubility [4] [µM] | IC50 ([1]; 1M NaCl) [µM] | HIV-1 Protease Therapeutic Index (LD50 /IC50) ([1]; LD50/IC50) | IC50 [1, 6] [µM] | IC50 ([2]; read-out: HIV-2 Protease IC50 (μM) 1M NaCl) [µM] | IC50 [1, 7] [µM] | inhibition of HIV-1 protease at the lower salt concentrations [1] | inhibition of HIV-1 protease compared with other compounds [1]
C[C@@H]1SC(CCCN2CCC(O)(c3ccc(Cl)cc3)CC2)(c2ccc(F)cc2)S[C@H]1C (relative stereo) [UCSF12, (trans-2,3-butanethioacetal)-4-[4-(p-chlorophenyl)-4-hydroxypiperidinyl]-4'-fluorobutyro-phenone] | 0.5 | 350 | 50 | 35 | < 250 |  |  |  |  |  |  | 
C[C@@H]1SC(CCCN2CCC(O)(c3ccc(Cl)cc3)CC2)(c2ccc(F)cc2)S[C@@H]1C (relative stereo) [UCSF64] |  | 16 | 29 | 25 | < 50 |  |  |  |  |  |  | 
O=C(CCC[N+]1([O-])CCC(O)(c2ccc(Cl)cc2)CC1)c1ccc(F)cc1 (stereo not drawn) [UCSF3, 4-[4-(p-chlorophenyl)-4-hydroxy-N-oxopiperidinyl]-4'-fluorobutyrophenone] | > 2.5 | 100 | 135 | > 500 | < 250 |  |  |  |  |  |  | 
ON=C(CCCN1CCC(O)(c2ccc(Cl)cc2)CC1)c1ccc(F)cc1 [UCSF4, 4-[4-(p-chlorophenyl)-4-hydroxypiperidinyl]-4'-fluorobutyrophenone oxime] | 0.7 | 100 | 116 |  | > 250 |  |  |  |  |  |  | 
C[N+]1(CCCC(=O)c2ccc(F)cc2)CCC(O)(c2ccc(Cl)cc2)CC1 (stereo not drawn) [UCSF5, 4-[4-(p-chlorophenyl)-4-hydroxy-N-methylpiperidinyl]-4'-fluorobutyrophenone] | > 6.3 | 79 | > 1000 | > 500 | > 250 |  |  |  |  |  |  | 
CC(=O)OC1(c2ccc(Cl)cc2)CCN(CCCC(=O)c2ccc(F)cc2)CC1 [UCSF6, 4-[4-(p-chlorophenyl)-4-acetoxypiperidinyl]-4'-fluorobutyrophenone] |  |  | 533 | 250 | > 250 | 725 | 0.3 |  |  |  |  | 
NN=C(CCCN1CCC(O)(c2ccc(Cl)cc2)CC1)c1ccc(F)cc1 [UCSF7, 4-[4-(p-chlorophenyl)-4-hydroxypiperidinyl]-4'-fluorobutyrophenone hydrazone] | 0.9 | 100 | 200 |  | > 250 |  |  |  |  |  |  | 
OC1(c2ccc(Cl)cc2)CCN(CCCC2(c3ccc(F)cc3)SCCCS2)CC1 [UCSF10, (1,3-propanethioacetal)-4-[4-(p-chlorophenyl)-4-hydroxypiperidinyl]-4'-fluorobutyrophenone] | 2 | 15 | 88 | 30 | < 100 |  |  |  |  |  |  | 
O=C(CCCN1CC=C(c2ccc(Cl)cc2)CC1)c1ccc(F)cc1 [UCSF11, 4-[4-(p-chlorophenyl)]-N-[4-(4'-fluorobutyrophenone)]-1,2,5,6-tetrahydropyridine] |  |  | 310 | 250 | < 250 | 750 | 0.3 |  |  |  |  | 
OCCNN=C(CCCN1CCC(O)(c2ccc(Cl)cc2)CC1)c1ccc(F)cc1 [UCSF14] | 10 | 50 | 90 | 500 | 500 (≈ 217 µg/mL) |  |  |  |  |  |  | 
O=C(CCC[N+]1(CCc2ccccc2)CCC(O)(c2ccc(Cl)cc2)CC1)c1ccc(F)cc1 (stereo not drawn) [UCSF15, 4-[4-(p-chlorophenyl)-4-hydroxy-[N-(2-phenyl)ethyl]piperidinyl]-4'-fluorobutyrophenone] | 0.3 | 150 | 250 |  | > 250 |  |  |  |  |  |  | 
OC1(c2ccc(Cl)cc2)CCN(CCCC2(c3ccc(F)cc3)OCCO2)CC1 [UCSF16, (1,2-ethyloxoacetal)-4-[4-(p-chlorophenyl)-4-hydroxypiperidinyl]-4'-fluorobutyrophenone] | 2 |  |  | 150 | > 250 |  |  | 75 | 238 |  |  | 
O=C(CCC[n+]1ccc(-c2ccc(Cl)cc2)cc1)c1ccc(F)cc1 [UCSF17, 4-[4-(p-chlorophenyl)l-N-[4-(4'-fluorobutyrophenone)]pyridinium bromide] |  |  |  | 500 | > 250 | 1200 | 0.4 |  |  |  |  | 
OC1(c2ccc(Cl)cc2)CCN(CCCC2(c3ccc(F)cc3)SCc3ccccc3CS2)CC1 [UCSF18, (1,2-benzene-dimethanethioacetal)-4-[4-(p-chlorophenyl)-4-hydroxypiperidinyl]-4'-fluorobutyrophenone] | 1.4 | 25 | 10 | 35 | > 250 |  |  |  |  |  |  | 
O=C(CCCN1CCC(c2ccccc2)CC1)c1ccc(F)cc1 [UCSF19] |  |  | 323 |  |  |  |  |  |  | 250 |  | 
O=C(CCCN1CCC(O)(c2ccc(Cl)cc2)C(O)C1)c1ccc(F)cc1 (stereo not drawn) [UCSF20, 4-[4-(p-chlorophenyl)-3,4-dihydroxypiperidinyl)-4'-fluorobutyrophenone] | 0.26 | 675 |  |  | > 250 |  |  |  |  |  |  | 

Structure (SMILES) | HIV-1 Protease Therapeutic Index (LD50 /IC50) [1] | IC50 [1, 5] [µM] | IC50 [2] [µM] | CC50 at 6 h [3] [µM] | solubility [4] [µM] | IC50 ([1]; 1M NaCl) [µM] | HIV-1 Protease Therapeutic Index (LD50 /IC50) ([1]; LD50/IC50) | IC50 [1, 6] [µM] | IC50 ([2]; read-out: HIV-2 Protease IC50 (μM) 1M NaCl) [µM] | IC50 [1, 7] [µM] | inhibition of HIV-1 protease at the lower salt concentrations [1] | inhibition of HIV-1 protease compared with other compounds [1]
OC1(c2ccc(Cl)cc2)CCN(CCCC2(c3ccc(F)cc3)SCc3cccc(c3)CS2)CC1 [UCSF21, (1,3-benzenedimethanethioacetal)-4-[4-(p-chlorophenyl)-4-hydroxypiperidinyl]-4'-fluorobutyrophenone] | > 20(10) | 25 | 75 | > 500 | < 250 |  |  |  |  |  |  | 
OC1(c2ccc(Cl)cc2)CCN(CCCC2(c3ccc(F)cc3)SCc3ccc(cc3)CS2)CC1 [UCSF22, (1,4-benzenedimethanethioacetal)-4-[4-(p-chlorophenyl)-4-hydroxypiperidinyl]-4'-fluorobutyrophenone] | 5(0.5) | 100 | 54 | > 500 | < 50 |  |  |  |  |  |  | 
OC1(c2ccc(Cl)cc2)CCN(CCCC2(c3ccc(F)cc3)SCCCCS2)CC1 [UCSF23, (1,4-butanethioacetal)-4-[4-(p-chlorophenyl)-4-hydroxypiperidinyl]-4'-fluorobutyrophenone] | 1.25 | 20 | 71 | 25 | > 250 |  |  |  |  |  |  | 
OC1(c2ccc(Cl)cc2)CCN(CCCC(O)(c2ccccc2)c2ccc(F)cc2)CC1 (stereo not drawn) [UCSF24, 4-[4-(p-chlorophenyl)-4-hydroxypiperidinyl]-1-phenyl-1-(p-fluorophenyl)-butan-1-ol] | 0.4 | 62 |  | 25 | > 200 |  |  |  |  |  |  | 
OC1(c2ccc(Cl)cc2)CCN(CCCC(O)(Cc2ccccc2)c2ccc(F)cc2)CC1 (stereo not drawn) [UCSF25] | 0.2 | 87 | 75 | 20 |  |  |  |  |  |  |  | 
O=C(CCCN1CCC(O)(c2ccccc2)CC1)c1ccc2ccccc2n1 [UCSF27] | 2(1) |  |  | 400 | < 200 |  |  | 198 |  |  |  | 
OC1(c2ccccc2)CCN(CCCC2(c3ccc(F)cc3)OCCO2)CC1 [UCSF28, (1,2-ethyloxoacetal)-4-(4-phenyl-4-hydroxypiperidinyl)-4'-fluorobutyrophenone] | 1.2 | 410 |  | > 500 | > 500 |  |  |  |  |  |  | 
OC1(c2ccccc2)CCN(CCCC2(c3ccccc3)OCCO2)CC1 [UCSF30, (1,2-ethyloxoacetal)-4-(4-phenyl-4-hydroxypiperidinyl)butyrophenone] | 1 | 265 | 500 | > 250 | > 250 |  |  |  |  |  |  | 
O=C(CCCN1CCC(O)(c2ccccc2)CC1)c1ccc(F)cc1 [UCSF31, 4-(4-phenyl-4-hydroxypiperidinyl)-4'-fluorobutyrophenone] | > 1.1 | 230 | 495 | > 250 | > 250 |  |  |  |  |  |  | 
OC1(c2ccccc2)CCN(CCCC(O)(c2ccccc2)c2ccc3ccccc3n2)CC1 (stereo not drawn) [UCSF32, 4-(4-phenyl-4-hydroxypiperidinyl)-1-phenyl-1-[α-(2-azanaphthyl)]-butan-1-ol] | 0.4 | 60 | 80 | 25 |  |  |  |  |  |  |  | 
OC1(c2ccc(Cl)cc2)CCN(CCCC(O)(c2ccccc2)c2ccc(-c3ccccc3)cc2)CC1 (stereo not drawn) [UCSF33, 4-[4-(p-chlorophenyl)-4-hydroxypiperidinyl)-1-phenyl-1-(p-phenylphenyl)-butan-1-ol] | 1.4 | 7 | 7 | 10 | < 50 |  |  |  |  |  |  | 
O=C(CCCN1CCC(O)(c2ccc(Cl)cc2)CC1)c1ccncc1 [UCSF35] | > 0.8 |  |  | > 500 | > 500 |  |  | 650 |  |  |  | 
O=C(CCCC1(O)CCC(O)(c2ccc(Cl)cc2)CC1)c1ccccc1 (stereo not drawn) [UCSF45] |  |  |  |  |  |  |  |  |  | > 1000 |  | 
Cc1ccc(C2(CCC(c3ccccc3)N3CCC(O)(c4ccc(Cl)cc4)CC3)SCCS2)cc1 (stereo not drawn) [UCSF48] |  | 7 | 10 |  |  |  |  |  |  |  | Very little inhibition | slightly better inhibitor than USCF42 at 1M NaCl
OCC1(c2ccccc2)CCN(CCCC2(c3ccc(F)cc3)OCCO2)CC1 [UCSF53] |  | > 2500 |  | 500 | < 50 |  |  |  |  |  |  | 
